Results published in US5366983A, “Use of quaternary ammonium compounds to remove salmonella contamination from meat products” (The Board of Trustees of The University of Arkansas, priority 1992, dated 1994).
Values joined by “and” are separate entries in the source; they are usually repeats but may differ in a detail not shown here. Equal values may be shown once. Read-outs that look alike come from different tables or passages of the source.

How the values were obtained:
[1] = test system: Salmonella typhimurium ATCC 14028; assay: Effect on viability of Salmonella in suspension (Tables D-1 to D-3); type: cell-based; settings: for bacterial viability: Table D-1; for EC50: Salmonella enterica, read-out: EC50 (±SD), effect on viability in suspension
Protocol: EC50 values for four of the compounds were calculated from the bactericidal activity of the compounds as a function of molar concentration by a nonlinear regression algorithm.
In addition to the quaternary ammonium compounds, the antimicrobial activities of chelating agents Na2 -EDTA and EGTA were investigated. Na2 -EDTA was purchased from the Sigma Chemical Company (St. Louis, Mo.). Na2 -EDTA was dissolved in 0.04 M PPB prior to the assay and further dilutions were made in the same buffer.
EGTA was purchased from the Aldrich Chemical Company (Milwaukee, Wis.). EGTA was dissolved in 0.04 M PPB according to the procedure described by Harafuji and Ogawa (J. Biochem. 87:1305-1312 (1980)). After heating EGTA for 15 minutes at 80° C., the pH was adjusted to 7.0 by addition of NaOH. EGTA was filter-sterilized using a 0.2 μm Acro disc filter (Gelman Sciences; Ann Arbor, Mich.) prior to the assay. Further dilutions were made in sterile PPB.

[2] = test system: Salmonella typhimurium ATCC 14028 attached to human buccal epithelial cells; type: cell-based; settings: Table A-1
[3] = test system: Salmonella typhimurium on chicken skin; assay: Effect of surfactants on Salmonella attached to chicken skin, drumsticks (Tables F1-F4); settings: 25° C.
[4] = test system: Salmonella typhimurium ATCC 14028 attached to human buccal epithelial cells; assay: microbe, parasite or virus in culture; type: cell-based; settings: for adherence, mean value of attached bacteria: Table A-3; for EC50: read-out: EC50 (±SD), detachment
Protocol: Additional studies on the detachment of Salmonella typhimurium from human buccal epithelial cells were conducted.
S. typhimurium ATCC 14028 was grown in nutrient broth (BBL Microbiology system, Cockeysville, Md.) for 16 hours at 37° C. The cells were centrifuged and washed twice with 0.008 M phosphate buffered saline (PBS, at pH 7.2) at 4500 rpm for 10 minutes. The last suspension was diluted in PBS to obtain a cell concentration 0.5 to 1×10^9 cells/ml using spectrophotometric measurement. Human epithelial cells were obtained by swabbing the buccal surface of a healthy, nonsmoking donor. […] The number of living cells was estimated and the suspension was diluted to 0.5 to 1×10^5 cells/ml.
The suspension of the human buccal cells was mixed with an equal volume of the bacterial suspension (3.0 ml), or PBS (0.8 ml) in 10 ml Erlenmeyer flasks. Contact was allowed for 1.5 hours at 35° C. under agitation. After incubation, 1.0 ml of each suspension was transferred into an Eppendorff vial, centrifuged at 3000 rpm for 10 minutes, and washed with PBS. The cells were treated with 1.0 ml PBS or 1.0 ml of the test chemical solution. Treatment was performed by suspending, gently vortexing, and centrifuging at 1500 rpm for 10 minutes. After the treatment, the cells were washed and placed on microscopic slides for examination.
EC50 represents the inverse measurement of the potency of a compound. EC50 values were determined by a nonlinear regression of the detachment effect versus the cationic surfactant concentration data from Table A-3.

[5] = test system: Salmonella typhimurium ATCC 14028; assay: Minimum growth inhibitory concentration, macrodilution; type: cell-based; settings: Mueler Hinton broth, macrodilution (NCCLS)
Protocol: Minimum growth inhibitory concentrations (MICs) of quaternary ammonium compounds and Na2 -EDTA for Salmonella were determined using Mueler Hinton broth (BBL Microbiology system, Cockeysville, Md.) and by the macrodilution method established by the National Committee for Clinical Laboratory Standards (NCCLS). Escherichia coli ATCC 25922 and Staphylococcus aureus ATCC 29213 were included in each assay as reference strains.

[6] = test system: Escherichia coli ATCC 25922; settings: E. coli; cited from earlier work
[7] = test system: Staphylococcus aureus ATCC 29213; settings: S. aureus; cited from earlier work
[8] = Salmonella enterica, Epithelial cell

Structure (SMILES) | bacterial viability ([1]; 10 ug/ml) | bacterial viability ([1]; 100 ug/ml) | adherence, mean value of attached bacteria ([2]; 10 ug/ml) | adherence, mean value of attached bacteria ([2]; 25 ug/ml) | Enrichment, chicken legs out of ten ([3]; 0.1%) | Rinse H2O ([3]; 0.1%) | Surfactant Solution ([3]; 0.1%) | Swabs, chicken legs producing the notated number of colonies ([3]; 0.1%) | Wash H2O, colonies ([3]; 0.1%) | Enrichment, chicken legs out of ten ([3]; 1.0%) | Rinse H2O ([3]; 1.0%) | Surfactant Solution ([3]; 1.0%) | Swabs, chicken legs producing the notated number of colonies ([3]; 1.0%) | Wash H2O, colonies ([3]; 1.0%) | Enrichment, chicken legs out of ten ([3]; .01%) | Rinse H2O ([3]; .01%) | Surfactant Solution ([3]; .01%) | Swabs, chicken legs producing the notated number of colonies ([3]; .01%) | Swabs, colonies ([3]; .01%) | Wash H2O, chicken legs producing the notated number of colonies ([3]; .01%) | further results
CCCCCCCCCCCC[N+](C)(C)C.[Br-] [DTMAB, dodecyltrimethylammonium bromide] | 1.44 ± 0.07 × 10^9 CFU/ml | 1.3 ± 0.03 × 10^9 CFU/ml | 76 ± 43 | 41 ± 19 | 8/10 | + (1-10) | 0 CFU/ml | 6/10 | ++ (11-100) | 0/10 | 0 CFU/ml | 0 CFU/ml | 0/10 | 0 CFU/ml | 10/10 | + (1-10) | + (1-10) | 10/10 | + (1-10) | 10/10 | bacterial viability ([1]; 200 ug/ml): 8.75 ± 1.28 × 10^8 CFU/ml; bacterial viability ([1]; 350 ug/ml): 800 ± 1300 CFU/ml; bacterial viability ([1]; 1000 ug/ml): 100 ± 100 CFU/ml; EC50 [1]: 730 ± 64 µM; adherence, mean value of attached bacteria ([2]; 75 ug/ml): 30 ± 18; adherence, mean value of attached bacteria ([2]; 100 ug/ml): 23 ± 18; Swabs, colonies ([3]; 0.1%): + (1-10); Wash H2O, chicken legs producing the notated number of colonies ([3]; 0.1%): 10/10; Wash H2O, colonies ([3]; .01%): ++ (11-100); adherence, mean value of attached bacteria ([4]; 50 ug/ml): 113 ± 85; adherence, mean value of attached bacteria ([4]; 75 ug/ml): 102 ± 59; adherence, mean value of attached bacteria ([4]; 100 ug/ml): 92 ± 58 and 74 ± 56; adherence, mean value of attached bacteria ([4]; 150 ug/ml): 80 ± 59; adherence, mean value of attached bacteria ([4]; 200 ug/ml): 60 ± 43; adherence, mean value of attached bacteria ([4]; 250 ug/ml): 63 ± 35; adherence, mean value of attached bacteria ([4]; 300 ug/ml): 54 ± 35; adherence, mean value of attached bacteria ([4]; 325 ug/ml): 68 ± 39; EC50 [4, 8]: 868 ± 112 µM; MIC [5]: 150 µg/mL; MIC ([5]; Salmonella enterica): 156 µg/mL
CCCCCCCCCCCCCC[N+](C)(C)C.[Br-] [TTMAB, tetradecyltrimethylammonium bromide] | 1.33 ± 0.09 × 10^9 CFU/ml | 0 CFU/ml | 39 ± 26 | 24 ± 13 | 0/10 | ++ (11-100) | 0 CFU/ml | 5/10 | 0 CFU/ml | 0/10 | 0 CFU/ml | 0 CFU/ml | 0/10 | 0 CFU/ml | 8/10 | + (1-10) | 0 CFU/ml | 10/10 | + (1-10) | 10/10 | bacterial viability ([1]; 20 ug/ml): 1.06 ± 0.08 × 10^9 CFU/ml; bacterial viability ([1]; 60 ug/ml): 1.52 ± 2.07 × 10^3 CFU/ml; bacterial viability ([1]; 80 ug/ml): 100 ± 173 CFU/ml; EC50 [1]: 105 ± 0.8 µM; adherence, mean value of attached bacteria ([2]; 5 ug/ml): 37 ± 20; adherence, mean value of attached bacteria ([2]; 50 ug/ml): 28 ± 14; Swabs, colonies ([3]; 0.1%): + (1-10); Wash H2O, colonies ([3]; .01%): ++ (11-100); adherence, mean value of attached bacteria ([4]; 25 ug/ml): 91 ± 66; adherence, mean value of attached bacteria ([4]; 50 ug/ml): 53 ± 34; adherence, mean value of attached bacteria ([4]; 75 ug/ml): 72 ± 53; adherence, mean value of attached bacteria ([4]; 100 ug/ml): 42 ± 22 and 26 ± 14; adherence, mean value of attached bacteria ([4]; 175 ug/ml): 28 ± 10; EC50 [4, 8]: 129 ± 3.9 µM; minimal effective concentration ([4]; Salmonella enterica, Epithelial cell, read-out: active concentration, detachment): 25 µg/mL; MIC [5]: 60 µg/mL; MIC ([5]; Salmonella enterica): 64 µg/mL
CC1(C)S[C@@H]2[C@H](NC(=O)[C@H](N)c3ccccc3)C(=O)N2[C@H]1C(=O)O [ampicillin] | – | – | – | – | – | – | – | – | – | – | – | – | – | – | – | – | – | – | – | – | acceptable MIC by NCCLS [6]: 2 to 8 µg/mL; acceptable MIC by NCCLS [7]: 0.5 to 2 µg/mL
CCCCCCCCCCCC[n+]1ccccc1 [DPC, dodecylpyridinium chloride] | 1.39 ± 0.34 × 10^9 CFU/ml | 9.8 ± 2.17 × 10^8 CFU/ml and 8.85 ± 0.3 × 10^8 CFU/ml | 70 ± 35 | 55 ± 23 | 8/10 | 0 CFU/ml | 0 CFU/ml | 0/10 | ++ (11-100) | 0/10 | 0 CFU/ml | 0 CFU/ml | 0/10 | 0 CFU/ml | 10/10 | + (1-10) | 0 CFU/ml | 6/10 | + (1-10) | 10/10 | bacterial viability ([1]; 200 ug/ml): < 10^5 CFU/ml; bacterial viability ([1]; 400 ug/ml): 0 CFU/ml; bacterial viability ([1]; 1000 ug/ml): 0 CFU/ml; adherence, mean value of attached bacteria ([2]; 50 ug/ml): 46 ± 28; adherence, mean value of attached bacteria ([2]; 75 ug/ml): 34 ± 20; adherence, mean value of attached bacteria ([2]; 100 ug/ml): 34 ± 18; adherence, mean value of attached bacteria ([2]; 500 ug/ml): 14 ± 10; Wash H2O, chicken legs producing the notated number of colonies ([3]; 0.1%): 7/10; Wash H2O, colonies ([3]; .01%): ++ (11-100); adherence, mean value of attached bacteria ([4]; 100 ug/ml): 129 ± 87; adherence, mean value of attached bacteria ([4]; 150 ug/ml): 141 ± 66; adherence, mean value of attached bacteria ([4]; 175 ug/ml): 110 ± 73; adherence, mean value of attached bacteria ([4]; 250 ug/ml): 62 ± 50; adherence, mean value of attached bacteria ([4]; 300 ug/ml): 61 ± 34; adherence, mean value of attached bacteria ([4]; 450 ug/ml): 54 ± 23; EC50 [4, 8]: 716 ± 63 µM; MIC ([5]; Salmonella enterica, read-out: MIC): 80 µg/mL
